Results taken from patent publication US20050182220A1, “Novel functional norbornenes as initiators for radical polymerization, their polymeric derivatives and a process for producing the same” (priority 2004, published 2005).

Test: Solubility in organic solvents
Format: physicochemical

## CC(C)(Br)C(=O)NCC1CC2C=CC1C2 (stereo not drawn) [NBTMBr]
At 60° C.
  Solubility: completely soluble in (solvents): completely in N,N-dimethylacetamide (DMAc)
  Solubility: partially soluble in (solvents): partially in toluene, benzene, hexane and N-methyl-2-pyrrolidinone (NMP)
At room temperature
  Solubility: soluble in (solvents): soluble in acetone, pyridine, ethanol, methanol, methylene chloride, tetrahydrofuran, N,N-dimethylformamide (DMF) and dimethylsulfoxide (DMSO)
